In patent US5786361A, “Pyridazino-, pyrimido-, pyrazino- and triazinoindoles, -pyrrolocycloalkenes or pyrrolooxocycloalkenes, or pyridopyrrolylpyrido compounds, compositions containing them, and use thereof to treat atherosclerosis” (Bayer Aktiengesellschaft, priority 1997, dated 1998) one finds IC50 data, which are given here for five molecules.

In general, IC50 refers to the midpoint of a concentration-inhibition curve. Higher therefore signals weaker potency in that assay.

This experiment concerns HepG2 cells. Put plainly: Inhibition of the release of ApoB-100-associated lipoproteins from liver cells (HepG2), immunoassay. It is filed as cell-based. Conditions: Homo sapiens; HepG2 culture supernatant; light adsorption at 450 nm vs solvent control; release of ApoB-100-associated particles. As to the method:
1. Inhibition of the release of ApoB-100-associated lipoproteins
The test for detecting the inhibition of the release of ApoB-100-associatedlipoproteins from liver cells was carried out in vitro using cultured liver cells, preferably using cells of the human line HepG2. These cells are cultured under standard conditions in medium for the culture of eucaryotic cells, preferably in RPMI 1640 with 10% foetal calf serum. HepG2 cells synthesize and secrete into the culture supernatant ApoB-100-associated lipoprotein particles which in principle are constructed similarly to the VLDL and LDL particles which are to be found in the plasma.
These particles can be detected using an immunoassay for human LDL. This immunoassay is carried out using antibodies which have been induced in rabbits against human LDL under standard conditions. The anti-LDL antibodies (rabbit anti-LDL-Ab) were purified by affinity chromatography on an immunosorbent using human LDL. These purified rabbit anti-LDL-Ab are adsorbed on the surface of plastic. Expediently, this adsorption takes place on the plastic surface of microtitre plates having 96 depressions, preferably on MaxiSorp plates. If ApoB-100-associated particles are present in the supernatant of Hep-G2 cells, these can bind to the insolubilized rabbit anti-LDL-Abs, and an imunune complex results which is bound to the plastic surface. Unbound proteins are removed by washing. The immune complex on the plastic surface is detected using monoclonal antibodies which have been induced against human LDL under standard conditions and purified. These antibodies were conjugated to the enzyme peroxidase. Peroxidase converts the colourless substrate TMB into a coloured product in the presence of H2 O2. After acidification of the reaction mixture with H2 SO4, the specific light adsorption at 450 nm is determined, which is a measure of the amount of ApoB-100-associated particles which have been secreted into the culture supernatant by the HepG2 cells.
The IC50 value indicates at which substance concentration the light adsorption is inhibited by 50% in comparison with the control (solvent control without substance).
For the molecule `CSc1nnc2c3ccccc3n(Cc3ccc(C(C(=O)N[C@@H](CO)c4ccccc4)C4CCCC4)cc3)c2n1` (some centres unmarked) [Example 26], 1.8 nM corresponded to half-maximal inhibition (IC50). Under `Cc1nc(C)c2c3ccccc3n(Cc3ccc(C(C(=O)NCc4ccncc4)C4CCCC4)cc3)c2n1` (centres unmarked) [Example 10] stands 1 nM; under `Cn1c(=O)c2c3ccccc3n(Cc3ccc([C@H](C(=O)N[C@@H](CO)c4ccccc4)C4CCCC4)cc3)c2c(=O)n1C` [Example 16], 8.9 nM; under `Cc1nc(C)c2c3ccccc3n(Cc3ccc([C@@H](C(=O)N[C@@H](CO)c4ccccc4)C4CCCC4)cc3)c2n1` [Example 6], 0.8 nM. Under `Cn1c(=O)c2c(c3ccccc3n2Cc2ccc([C@@H](C(=O)N[C@@H](CO)c3ccccc3)C3CCCC3)cc2)n(C)c1=O` (mixture of isomers) [Example 2, 2-(R)- and 2-(S)-2-Cyclopentyl-2-(4-{1,3-dimethyl-1,5-dihydro-2,4-oxo-pyrimido-[5,4-b]indol-5-yl-methyl}phenyl)-aceticacidN-(2-hydroxy-1-(R)-1-phenyl-ethyl)amide] stands 1.1 nM.
